Measurements published in ChEMBL document CHEMBL3804825, “Synthesis, structure-activity relationships, and biological evaluation of a series of benzamides as potential multireceptor antipsychotics” (Bioorg Med Chem Lett, 2016).
Calls of active or inactive are those of the source. The calls are words filed in the database; no cut-off is given here.

Tests used:
[1] = target: T1, 5-hydroxytryptamine receptor 1A (Homo sapiens, UniProt P08908); assay: Agonistic activity at human 5-HT1A receptor measured after 60 mins by Ultra Lance cAMP assay; format: functional
T1 sequence (P08908 whole entry): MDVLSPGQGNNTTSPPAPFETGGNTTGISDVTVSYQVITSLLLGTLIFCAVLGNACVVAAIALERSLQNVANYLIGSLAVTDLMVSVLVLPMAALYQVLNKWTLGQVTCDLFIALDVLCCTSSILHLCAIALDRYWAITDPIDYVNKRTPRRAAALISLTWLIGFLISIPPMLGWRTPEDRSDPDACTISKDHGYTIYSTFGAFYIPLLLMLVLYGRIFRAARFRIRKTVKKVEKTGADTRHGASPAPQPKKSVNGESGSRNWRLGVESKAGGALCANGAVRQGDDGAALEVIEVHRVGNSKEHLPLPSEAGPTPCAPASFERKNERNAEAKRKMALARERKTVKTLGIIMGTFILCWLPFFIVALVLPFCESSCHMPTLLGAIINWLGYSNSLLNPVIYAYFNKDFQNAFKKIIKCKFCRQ

[2] = target: 5-hydroxytryptamine receptor 2A (Homo sapiens, UniProt P28223); assay: Antagonistic activity at human 5-HT2A receptor assessed as calcium flux after 10 mins by FLIPR assay; format: functional
Chain of 5-hydroxytryptamine receptor 2A (P28223 whole entry): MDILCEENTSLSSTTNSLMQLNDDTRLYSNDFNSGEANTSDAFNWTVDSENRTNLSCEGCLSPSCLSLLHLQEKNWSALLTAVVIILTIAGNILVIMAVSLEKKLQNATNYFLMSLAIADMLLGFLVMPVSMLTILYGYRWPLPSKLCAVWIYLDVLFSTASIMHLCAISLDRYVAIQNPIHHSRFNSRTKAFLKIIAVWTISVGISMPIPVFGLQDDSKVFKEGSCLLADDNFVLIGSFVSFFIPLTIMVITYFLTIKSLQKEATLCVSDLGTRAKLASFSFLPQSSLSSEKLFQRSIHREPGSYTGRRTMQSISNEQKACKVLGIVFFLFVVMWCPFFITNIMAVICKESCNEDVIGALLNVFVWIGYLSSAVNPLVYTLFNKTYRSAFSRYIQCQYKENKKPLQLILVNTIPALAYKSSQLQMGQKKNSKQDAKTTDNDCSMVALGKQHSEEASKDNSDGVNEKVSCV

D(2) dopamine receptor = D(2) dopamine receptor (Homo sapiens, UniProt P14416); assay: Antagonistic activity at human dopamine D2 receptor measured after 60 mins by Ultra Lance cAMP assay; format: functional
Chain of D(2) dopamine receptor (P14416 whole entry): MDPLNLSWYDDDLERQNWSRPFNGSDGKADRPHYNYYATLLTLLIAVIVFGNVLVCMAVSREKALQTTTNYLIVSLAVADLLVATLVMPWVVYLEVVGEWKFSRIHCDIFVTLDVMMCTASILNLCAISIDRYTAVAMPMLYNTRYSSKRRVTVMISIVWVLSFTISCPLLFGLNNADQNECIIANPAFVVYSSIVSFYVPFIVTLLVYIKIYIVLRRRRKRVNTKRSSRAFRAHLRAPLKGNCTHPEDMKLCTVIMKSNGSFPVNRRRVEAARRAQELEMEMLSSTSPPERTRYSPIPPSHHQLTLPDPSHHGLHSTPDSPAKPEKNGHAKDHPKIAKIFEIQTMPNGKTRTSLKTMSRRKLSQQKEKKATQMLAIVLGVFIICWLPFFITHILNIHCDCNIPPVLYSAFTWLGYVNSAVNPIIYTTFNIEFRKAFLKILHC

Mus musculus [3] = assay: Toxicity in mouse assessed as induction of sedation at 10 mg/kg, ip administered 45 mins prior testing measured after 60 mins; format: organism-based; conditions: in vivo, 1 h
Histamine H1 receptor = Histamine H1 receptor (Homo sapiens, UniProt P35367); assay: Antagonistic activity at histamine1 receptor (unknown origin) after 10 mins by FLIPR assay
Chain of Histamine H1 receptor (P35367 whole entry): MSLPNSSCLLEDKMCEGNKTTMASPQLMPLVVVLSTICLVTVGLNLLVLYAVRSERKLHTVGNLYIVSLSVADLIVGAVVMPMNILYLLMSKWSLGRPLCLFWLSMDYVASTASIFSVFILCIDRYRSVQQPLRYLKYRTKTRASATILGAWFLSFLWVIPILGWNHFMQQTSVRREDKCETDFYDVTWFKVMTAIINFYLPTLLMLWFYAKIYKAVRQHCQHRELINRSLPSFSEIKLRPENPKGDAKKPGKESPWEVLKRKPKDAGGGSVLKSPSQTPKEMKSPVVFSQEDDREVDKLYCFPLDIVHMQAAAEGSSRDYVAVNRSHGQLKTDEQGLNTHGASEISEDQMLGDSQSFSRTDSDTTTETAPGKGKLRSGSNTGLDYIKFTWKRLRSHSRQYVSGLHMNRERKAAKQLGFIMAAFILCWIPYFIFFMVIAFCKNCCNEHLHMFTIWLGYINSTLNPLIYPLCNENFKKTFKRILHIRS

Mus musculus [4] = assay: Toxicity in mouse assessed as induction of sedation at 1 mg/kg, ip administered 45 mins prior testing measured after 60 mins; format: organism-based; conditions: in vivo, 1 h
[5] = target: Voltage-gated inwardly rectifying potassium channel KCNH2 (Homo sapiens, UniProt Q12809)
Chain of Voltage-gated inwardly rectifying potassium channel KCNH2 (Q12809 whole entry): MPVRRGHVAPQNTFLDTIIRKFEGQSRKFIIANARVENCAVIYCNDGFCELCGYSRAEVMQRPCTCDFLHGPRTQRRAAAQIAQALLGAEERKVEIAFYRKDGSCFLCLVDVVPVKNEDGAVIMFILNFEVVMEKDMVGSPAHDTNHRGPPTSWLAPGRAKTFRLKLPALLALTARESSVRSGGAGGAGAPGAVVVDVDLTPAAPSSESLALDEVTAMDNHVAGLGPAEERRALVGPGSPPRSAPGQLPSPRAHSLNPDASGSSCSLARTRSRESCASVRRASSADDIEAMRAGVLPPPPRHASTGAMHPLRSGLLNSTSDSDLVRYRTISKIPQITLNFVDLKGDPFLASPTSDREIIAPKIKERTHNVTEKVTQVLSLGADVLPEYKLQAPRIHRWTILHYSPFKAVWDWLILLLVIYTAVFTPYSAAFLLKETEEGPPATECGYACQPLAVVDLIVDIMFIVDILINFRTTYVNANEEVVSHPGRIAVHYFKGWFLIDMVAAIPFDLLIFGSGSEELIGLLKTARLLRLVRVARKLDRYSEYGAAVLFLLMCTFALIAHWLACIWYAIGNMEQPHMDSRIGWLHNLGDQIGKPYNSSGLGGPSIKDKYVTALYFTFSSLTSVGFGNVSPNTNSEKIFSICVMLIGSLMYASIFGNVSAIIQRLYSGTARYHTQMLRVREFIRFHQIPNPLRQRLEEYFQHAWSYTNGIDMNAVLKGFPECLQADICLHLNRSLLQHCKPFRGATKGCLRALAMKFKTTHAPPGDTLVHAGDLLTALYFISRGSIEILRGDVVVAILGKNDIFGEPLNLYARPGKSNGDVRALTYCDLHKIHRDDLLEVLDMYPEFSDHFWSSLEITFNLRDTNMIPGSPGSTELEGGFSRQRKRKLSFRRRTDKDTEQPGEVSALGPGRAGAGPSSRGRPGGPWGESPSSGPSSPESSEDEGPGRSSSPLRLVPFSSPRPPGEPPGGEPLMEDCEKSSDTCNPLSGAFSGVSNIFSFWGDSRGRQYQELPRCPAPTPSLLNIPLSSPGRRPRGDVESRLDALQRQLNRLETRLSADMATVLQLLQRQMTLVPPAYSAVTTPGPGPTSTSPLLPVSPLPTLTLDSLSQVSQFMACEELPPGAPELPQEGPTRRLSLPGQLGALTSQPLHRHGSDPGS
Description: Inhibition of human ERG after 10 mins

[6] = target: T2, Alpha-1A adrenergic receptor (Homo sapiens, UniProt P35348); assay: Antagonistic activity at alpha-1A adrenergic receptor (unknown origin) after 10 mins by FLIPR assay
T2 sequence (P35348 whole entry): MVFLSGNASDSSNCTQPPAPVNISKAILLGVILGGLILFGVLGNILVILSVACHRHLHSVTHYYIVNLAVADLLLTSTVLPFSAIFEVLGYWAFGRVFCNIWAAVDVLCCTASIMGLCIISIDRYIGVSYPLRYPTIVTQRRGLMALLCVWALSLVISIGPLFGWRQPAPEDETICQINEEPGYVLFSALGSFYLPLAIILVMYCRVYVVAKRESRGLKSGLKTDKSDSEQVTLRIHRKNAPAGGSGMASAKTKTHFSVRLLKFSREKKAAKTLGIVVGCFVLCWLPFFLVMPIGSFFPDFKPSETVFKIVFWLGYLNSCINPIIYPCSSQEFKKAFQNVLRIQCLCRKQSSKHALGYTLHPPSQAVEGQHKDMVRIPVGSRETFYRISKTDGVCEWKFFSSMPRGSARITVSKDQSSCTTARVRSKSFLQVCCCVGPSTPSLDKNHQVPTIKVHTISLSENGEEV

Mus musculus [7] = assay: Antipsychotic activity in ig dosed mouse assessed as inhibition of PCP-induced hyperactivity; format: functional; conditions: for ED50: po
[8] = Metabolic stability in human liver microsomes assessed as compound loss at 2 uM measured after 30 mins in presence of NADPH by LC-MS/MS analysis; format: ADME; conditions: read-out: Drug degradation
Mus musculus [9] = assay: Antipsychotic activity in mouse assessed as inhibition of PCP-induced hyperactivity at 10 mg/kg, ip administered 45 mins prior testing measured after 60 mins; format: functional, organism-based
Mus musculus [10] = assay: Antipsychotic activity in mouse assessed as inhibition of PCP-induced hyperactivity at 1 mg/kg, ip administered 45 mins prior testing measured after 60 mins; format: functional, organism-based
Mus musculus [11] = assay: Toxicity in ig dosed mouse assessed as induction of catalepsy by horizontal bar method; format: organism-based; conditions: in vivo, po
[12] = target: T3, 5-hydroxytryptamine receptor 2C (Homo sapiens, UniProt P28335); assay: Antagonistic activity at 5-HT2c receptor (unknown origin) after 10 mins by FLIPR assay
T3 sequence (P28335 whole entry): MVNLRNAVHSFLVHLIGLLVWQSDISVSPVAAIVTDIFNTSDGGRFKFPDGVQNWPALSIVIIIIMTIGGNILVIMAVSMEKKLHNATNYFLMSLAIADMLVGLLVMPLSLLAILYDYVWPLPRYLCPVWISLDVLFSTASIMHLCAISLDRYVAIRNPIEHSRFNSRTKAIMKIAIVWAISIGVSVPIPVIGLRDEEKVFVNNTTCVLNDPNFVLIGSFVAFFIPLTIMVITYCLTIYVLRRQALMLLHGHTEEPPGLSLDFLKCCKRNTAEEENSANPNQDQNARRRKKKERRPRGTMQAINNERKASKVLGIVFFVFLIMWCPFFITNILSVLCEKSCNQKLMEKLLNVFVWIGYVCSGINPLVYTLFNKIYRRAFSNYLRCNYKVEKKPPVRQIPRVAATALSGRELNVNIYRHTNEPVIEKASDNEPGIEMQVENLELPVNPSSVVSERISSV

in vivo = conditions: mouse, po
Description: Therapeutic index, ratio of ED50 for toxicity in orally dosed mouse by catalepsy test to ED50 for antipsychotic activity in mouse

Row | Structure (SMILES) | EC50 [1] | IC50 [2] | IC50 (D(2) dopamine receptor) | also measured
1 | CCCCCNC(=O)c1cccc(OCCCCN2CCN(c3cccc(Cl)c3Cl)CC2)c1 | 464 nM | 1100 nM | 16.8 nM | –
2 | CNC(=O)c1cccc(OCCCCN2CCN(c3cccc(Cl)c3Cl)CC2)c1OC | 120 nM | 720 nM | 202 nM | –
3 | CCNC(=O)c1cccc(OCCCCN2CCN(c3cccc(Cl)c3Cl)CC2)c1 | 101 nM | 670 nM | 116 nM | –
4 | CNC(=O)c1ccc(Cl)c(OCCCCN2CCN(c3cccc(Cl)c3Cl)CC2)c1 | > 10000 nM | 1380 nM | 58.5 nM | –
5 | CNC(=O)c1cc(F)cc(OCCCCN2CCN(c3cccc(Cl)c3Cl)CC2)c1 | 361 nM | 1320 nM | 1580 nM | –
6 | CNC(=O)c1cccc(OCCCCN2CCN(c3cccc(Cl)c3Cl)CC2)c1F | 301 nM | 30.3 nM | 171 nM | –
7 | CC(=O)Nc1cccc(OCCCCN2CCN(c3cccc(Cl)c3Cl)CC2)c1 | > 100 nM | 1050 nM | 98.4 nM | –
8 | CNC(=O)c1ccccc1OCCCCN1CCN(c2cccc(Cl)c2Cl)CC1 | 309 nM | 2200 nM | 167 nM | –
9 | CNC(=O)c1cc(OCCCCN2CCN(c3cccc(Cl)c3Cl)CC2)cc(C(C)=O)c1 | 137 nM | 494 nM | 37.7 nM | –
10 | CNC(=O)c1ccc(OCCCCN2CCN(c3cccc(Cl)c3Cl)CC2)cc1 | 122 nM | 820 nM | 70 nM | –
11 | Cc1nc2n(c(=O)c1CCN1CCC(c3noc4cc(F)ccc34)CC1)CCCC2 [RISPERIDONE] | – | – | – | ED50 (Mus musculus [11]): 0.3 mg/kg
12 | CNC(=O)c1cccc(OCCCCN2CCN(c3cccc(Cl)c3Cl)CC2)c1C | 122 nM | 860 nM | 3600 nM | –

Continued, in another order:

Row | EC50 [1] | IC50 [2] | IC50 (D(2) dopamine receptor) | Structure (SMILES) | also measured
13 | 74 nM | 460 nM | 9.8 nM | CNC(=O)c1cc(OCCCCN2CCN(c3cccc(Cl)c3Cl)CC2)ccc1C | –
14 | 26 nM | 1100 nM | – | NC(=O)c1cccc(OCCCCN2CCN(c3cccc(Cl)c3Cl)CC2)c1 | –
15 | 7.2 nM | 360 nM | 39.4 nM | CNC(=O)c1cc(OCCCCN2CCN(c3cccc(Cl)c3Cl)CC2)ccc1F | –
16 | 13 nM | 46 nM | 8.5 nM | CNC(=O)c1cccc(OCCCCN2CCC(c3noc4cc(F)ccc34)CC2)c1 | Activity (Mus musculus [3]): Toxic; IC50 (Histamine H1 receptor): 2560 nM; Activity (Mus musculus [4]): Non-toxic; IC50 [5]: 1030 nM; IC50 [6]: 35 nM; inhibition (Mus musculus [7]): Dose-dependent effect; ED50 (Mus musculus [7]): 0.06 mg/kg; metabolised at 0.5 h, 2 µM [8]: 3%; inhibition (Mus musculus [9]): Active; inhibition (Mus musculus [10]): Active; ED50 (Mus musculus [11]): 6.76 mg/kg; IC50 [12]: 190 nM; selectivity ratio (in vivo): 113
17 | 12 nM | > 10000 nM | 4.1 nM | CNC(=O)c1cccc(OCCCCN2CCN(c3cccc4c3OC(F)(F)O4)CC2)c1 | –
18 | 97.2 nM | 1400 nM | 89.8 nM | CNC(=O)c1cc(C)cc(OCCCCN2CCN(c3cccc(Cl)c3Cl)CC2)c1 | –
19 | 2.7 nM | 35 nM | 12 nM | CNC(=O)c1cc(OCCCCN2CCN(c3nsc4ccccc34)CC2)ccc1F | metabolised at 0.5 h, 2 µM [8]: 47%; inhibition (Mus musculus [9]): inactive
20 | 6 nM | 80 nM | 43 nM | CNC(=O)c1cc(OCCCCN2CCN(c3cccc4sccc34)CC2)ccc1F | metabolised at 0.5 h, 2 µM [8]: 51%; inhibition (Mus musculus [9]): inactive
21 | 8.2 nM | 1900 nM | 30 nM | CNC(=O)c1cc(OCCCCN2CCN(c3cccc4c3OC(F)(F)O4)CC2)ccc1F | –
22 | 34.4 nM | 340 nM | 34.9 nM | CNC(=O)c1cc(OCCCCN2CCN(c3cccc(Cl)c3Cl)CC2)ccc1Cl | –
23 | 13 nM | 15 nM | 23 nM | CNC(=O)c1cc(OCCCCN2CCC(c3noc4cc(F)ccc34)CC2)ccc1F | Activity (Mus musculus [3]): Toxic; IC50 (Histamine H1 receptor): 972 nM; Activity (Mus musculus [4]): Non-toxic; IC50 [6]: 120 nM; inhibition (Mus musculus [7]): Dose-dependent effect; ED50 (Mus musculus [7]): 0.11 mg/kg; metabolised at 0.5 h, 2 µM [8]: 14%; inhibition (Mus musculus [9]): Active; inhibition (Mus musculus [10]): Active; ED50 (Mus musculus [11]): 7.04 mg/kg; IC50 [12]: 270 nM
24 | 24 nM | 1100 nM | 32 nM | CNC(=O)c1cccc(OCCCCN2CCN(c3cccc(Cl)c3Cl)CC2)c1 | –
25 | 4.3 nM | 180 nM | 10 nM | CNC(=O)c1cccc(OCCCCN2CCN(c3nsc4ccccc34)CC2)c1 | –
26 | 5.1 nM | 216 nM | 91 nM | CNC(=O)c1cccc(OCCCCN2CCN(c3cccc4sccc34)CC2)c1 | –
27 | 26 nM | 840 nM | 12 nM | CNC(=O)c1ccc(OC)c(OCCCCN2CCN(c3cccc(Cl)c3Cl)CC2)c1 | –
